The structures appear in SMILES notation.

The nature of this assay: DPPH radical scavenging antioxidant test. Conditions: 517 nm; for Inhibition (radical scavenging inhibition): 0.2 mL DPPH (0.75 mM), compound 3 μM in ethanol, 30 min incubation in the dark. The class given is biochemical. The method, then:
The antioxidant activity of 5,5′-naphthalene-1,5-diylbis(diazene-2,1-diyl)bis(2-hydroxybenzaldehyde) was investigated by 2,2-diphenyl-1-picrylhydrazyl (DPPH) in vitro tests that employ vitamin C as the positive control.
The antioxidant properties of the 5,5′-naphthalene-1,5-diylbis(diazene-2,1-diyl)bis(2-hydroxybenzaldehyde) were studied by adding 0.2 mL DPPH (0.75 mM)) to compound 5,5′-naphthalene-1,5-diylbis(diazene-2,1-diyl)bis(2-hydroxybenzaldehyde) (III) (3 μM) in ethanol. After 30 min of incubation in the dark, the absorbance was read against a blank at 517 nm. Ascorbic acid (vitamin C) was used as standard antioxidants (positive control). A blank sample was prepared by 0.2 ml of DPPH in 3 ml ethanol. A negative control sample was run using ethanol instead of the sample. The radical scavenging inhibition was calculated using the following equation: […]
The antioxidant activity for the synthesized compound is listed in Table 1, using Vitamin C as a reference.
Background: The DPPH test is a chemical assay of radical scavenging.

Consider `O=Cc1cc(/N=N\c2cccc3c(/N=N/c4ccc(O)c(C=O)c4)cccc23)ccc1O` [Product III, 5,5′-naphthalene-1,5-diylbis(diazene-2,1-diyl)bis(2-hydroxybenzaldehyde)], for which the “Inhibition (radical scavenging inhibition)” value amounted to 54%. In addition, the “antioxidant potential compared to vitamin C (vanishing DPPH radical colors)” value (DPPH in vitro test, vitamin C as positive control) is given as “high potential as an antioxidant”.

Regarding `O=C1O[C@H]([C@@H](O)CO)C(O)=C1O` [vit c, Ascorbic acid, reference compound], the “Inhibition (radical scavenging inhibition)” value came to 74%.

The values are drawn from patent publication US11952325B1, “5,5′-naphthalene-1,5-diylbis(diazene-2,1-diyl)bis(2-hydroxybenzaldehyde) as an antioxidant compound” (KING FAISAL UNIVERSITY, priority 2023, dated 2024).
